From patent publication US20170320870A1 (Medical Research Council Technology, priority 2009, published 2017)

Target: T1, LRRK2 wild type (recombinant human, catalytic domain amino acids 970-2527, GST-tagged) (Homo sapiens, UniProt Q5S007)
T1 construct: The wild type used was recombinant human, catalytic domain (amino acids 970-2527) GST-tagged, expressed in insect cells; GST; purchased Invitrogen Corporation PV4873; host or cells: insect cells
Assay: LRRK2 wild type protein kinase assay ([γ-33P] ATP, peptide substrate […]), IC50
Assay type: biochemical
Settings: LRRK2 (variant not given); read-out: Potency score, LRRK2 IC50
Text: All LRRK2 protein kinases were of human origin and were sourced from Invitrogen Corporation (Carlsbad, Calif. 92008 USA) unless otherwise indicated. The active mutant used was recombinant human, catalytic domain (amino acids 970-2527) containing a G2019S mutation, GST-tagged, expressed in insect cells (Invitrogen Cat#PV4881). The wild type used was recombinant human, catalytic domain (amino acids 970-2527) GST-tagged, expressed in insect cells (Invitrogen Cat#PV4873). The kinase dead mutant used was recombinant human, catalytic domain (amino acids 970-2527) containing a D1994A mutation, GST-tagged, expressed in insect cells (Invitrogen Cat#PM4041AE). No special measures were taken to activate any of the kinases.
All assays were carried out at room temperature (˜21° C.) and were linear with respect to time and enzyme concentration under the conditions used. Assays were performed for 180 min in a 96 well format. LRRK2 was present at a concentration of approximately 5 nM. The enzyme was diluted and assayed in 50 mM Tris-HCl pH7.5, 0.1 mM EGTA, 1 mM DTT and 10 mM MgCl2. The concentration of magnesium chloride in the assay was 10 mM. The [γ-33P] […] The peptide substrate in the assay was […] at 100 μM.
The assays were initiated with Mg/ATP and stopped by the addition of 25 μl/well 50% orthophosphoric acid. Reactions were harvested onto Whatman P81 Unifilter Plates (Fisher Scientific. Loughborough, LE115RG, UK. Cat# FDU-105-020U) using a Tomtec harvester. (Tomtec Hamden, Conn. 06514. USA) Plates were counted using a Perkin Elmer Top Count NX7. (Perkin Elmer, Shelton Conn. 06484-4794 USA)
IC50 values of inhibitors were determined after carrying out assays at 10 different concentrations of each compound in duplicate.

T1 sequence (Q5S007 970-2527): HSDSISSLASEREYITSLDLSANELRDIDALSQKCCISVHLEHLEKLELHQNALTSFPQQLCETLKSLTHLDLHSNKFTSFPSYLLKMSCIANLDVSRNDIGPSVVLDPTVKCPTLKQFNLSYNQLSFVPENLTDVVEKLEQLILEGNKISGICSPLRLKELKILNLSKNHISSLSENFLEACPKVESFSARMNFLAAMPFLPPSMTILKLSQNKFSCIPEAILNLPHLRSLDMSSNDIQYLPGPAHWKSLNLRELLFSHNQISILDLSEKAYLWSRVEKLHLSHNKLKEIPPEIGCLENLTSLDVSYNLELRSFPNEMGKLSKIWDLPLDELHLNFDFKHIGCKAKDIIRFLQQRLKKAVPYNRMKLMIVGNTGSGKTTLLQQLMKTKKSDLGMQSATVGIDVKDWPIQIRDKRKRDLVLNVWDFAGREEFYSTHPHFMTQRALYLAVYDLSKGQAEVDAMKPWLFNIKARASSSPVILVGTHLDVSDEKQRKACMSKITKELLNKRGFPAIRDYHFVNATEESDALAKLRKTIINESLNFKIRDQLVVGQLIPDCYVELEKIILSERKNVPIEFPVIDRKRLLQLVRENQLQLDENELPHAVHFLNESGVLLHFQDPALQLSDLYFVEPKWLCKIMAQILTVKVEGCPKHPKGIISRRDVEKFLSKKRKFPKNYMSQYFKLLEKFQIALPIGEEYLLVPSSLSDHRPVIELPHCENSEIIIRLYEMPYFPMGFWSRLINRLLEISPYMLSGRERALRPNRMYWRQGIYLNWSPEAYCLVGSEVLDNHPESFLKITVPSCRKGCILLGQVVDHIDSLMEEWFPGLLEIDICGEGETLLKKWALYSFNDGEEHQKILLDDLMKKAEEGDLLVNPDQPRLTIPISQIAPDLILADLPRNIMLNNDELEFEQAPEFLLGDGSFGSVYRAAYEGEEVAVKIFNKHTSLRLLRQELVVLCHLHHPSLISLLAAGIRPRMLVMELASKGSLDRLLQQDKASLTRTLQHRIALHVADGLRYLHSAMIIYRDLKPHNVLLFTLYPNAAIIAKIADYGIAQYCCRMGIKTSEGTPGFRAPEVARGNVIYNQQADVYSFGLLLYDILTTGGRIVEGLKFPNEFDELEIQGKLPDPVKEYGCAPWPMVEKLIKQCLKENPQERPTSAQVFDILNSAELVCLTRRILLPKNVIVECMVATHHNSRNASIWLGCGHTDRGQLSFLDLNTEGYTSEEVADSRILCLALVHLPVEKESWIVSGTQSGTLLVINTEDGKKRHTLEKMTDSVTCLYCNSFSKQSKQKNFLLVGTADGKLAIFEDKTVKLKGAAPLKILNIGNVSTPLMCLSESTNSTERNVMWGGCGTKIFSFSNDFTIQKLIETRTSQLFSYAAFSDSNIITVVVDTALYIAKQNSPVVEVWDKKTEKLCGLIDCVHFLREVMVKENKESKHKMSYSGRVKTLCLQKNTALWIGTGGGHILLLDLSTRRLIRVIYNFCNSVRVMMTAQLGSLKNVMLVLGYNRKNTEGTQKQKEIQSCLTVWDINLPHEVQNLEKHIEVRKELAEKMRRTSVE

IC50 | Compound
1000 to 10000 nM | Cc1n[nH]c2ccnc(N(C)C3CCCCC3)c12 [Example 35, Cyclohexyl-methyl-(3-methyl-1H-pyrazolo[4,3-c]pyridin-4-yl)-amine]
100 to 1000 nM | Cc1n[nH]c2ccnc(NC(C)C)c12 [Example 36, Isopropyl-(3-methyl-1H-pyrazolo[4,3-c]pyridin-4-yl)-amine]
1000 to 10000 nM | CC[C@@H](C)Nc1nccc2[nH]nc(C)c12 [Example 37, ((R)-sec-Butyl)-(3-methyl-1H-pyrazolo[4,3-c]pyridin-4-yl)-amine]
1000 to 10000 nM | Cc1n[nH]c2ccnc(N[C@H](C)C3CCCCC3)c12 [Example 38, ((R)-1-Cyclohexyl-ethyl)-(3-methyl-1H-pyrazolo[4,3-c]pyridin-4-yl)-amine]
100 to 1000 nM | Cc1n[nH]c2ccnc(N[C@H](C)C(C)C)c12 [Example 39, ((R)-1,2-Dimethyl-propyl)-(3-methyl-1H-pyrazolo[4,3-c]pyridin-4-yl)-amine]
100 to 1000 nM | Cc1n[nH]c2ccnc(N[C@@H](C)C(C)C)c12 [Example 40, ((S)-1,2-Dimethyl-propyl)-(3-methyl-1H-pyrazolo[4,3-c]pyridin-4-yl)-amine]
100 to 1000 nM | CCC(CC)Nc1nccc2[nH]nc(C)c12 [Example 41, (1-Ethyl-propyl)-(3-methyl-1H-pyrazolo[4,3-c]pyridin-4-yl)-amine]
100 to 1000 nM | Cc1n[nH]c2ccnc(N[C@@H](C)C3CC3)c12 [Example 42, ((S)-1-Cyclopropyl-ethyl)-(3-methyl-1H-pyrazolo[4,3-c]pyridin-4-yl)-amine]
1000 to 10000 nM | Cc1n[nH]c2ccnc(N[C@H](C)C3CC3)c12 [Example 43, ((R)-1-Cyclopropyl-ethyl)-(3-methyl-1H-pyrazolo[4,3-c]pyridin-4-yl)-amine]
100 to 1000 nM | CC[C@H](C)Nc1nccc2[nH]nc(C)c12 [Example 44]
1000 to 10000 nM | Cc1n[nH]c2ccnc(NC(C)CC(C)C)c12 (stereo not drawn) [Example 45, (1,3-Dimethyl-butyl)-(3-methyl-1H-pyrazolo[4,3-c]pyridin-4-yl)-amine]
100 to 1000 nM | Cc1n[nH]c2ccnc(NC3CCS(=O)(=O)CC3)c12 [Example 46, (1,1-Dioxo-hexahydro-1λ^6-thiopyran-4-yl)-(3-methyl-1H-pyrazolo[4,3-c]pyridin-4-yl)-amine]
1000 to 10000 nM | Cc1n[nH]c2ccnc(-c3cnn(C)c3)c12 [Example 47, 3-Methyl-4-(1-methyl-1H-pyrazol-4-yl)-1H-pyrazolo[4,3-c]pyridine]
100 to 1000 nM | Cc1n[nH]c2ccnc(-c3ccco3)c12 [Example 48, 4-Furan-2-yl-3-methyl-1H-pyrazolo[4,3-c]pyridine]
100 to 1000 nM | Cc1n[nH]c2ccnc(-c3ccccc3F)c12 [Example 49, 4-(2-Fluoro-phenyl)-3-methyl-1H-pyrazolo[4,3-c]pyridine]
1000 to 10000 nM | Cc1n[nH]c2ccnc(-c3ccc(F)cc3)c12 [Example 50, 4-(4-Fluoro-phenyl)-3-methyl-1H-pyrazolo[4,3-c]pyridine]
1000 to 10000 nM | Cc1n[nH]c2ccnc(-c3cccc(F)c3)c12 [Example 51, 4-(3-Fluoro-phenyl)-3-methyl-1H-pyrazolo[4,3-c]pyridine]
1000 to 10000 nM | Cc1n[nH]c2ccnc(-c3cccc(NS(C)(=O)=O)c3)c12 [Example 52, N-[3-(3-Methyl-1H-pyrazolo[4,3-c]pyridin-4-yl)-phenyl]-methane-sulfonamide]
1000 to 10000 nM | Cc1n[nH]c2ccnc(-c3ccc(N4CCOCC4)cc3)c12 [Example 53, 3-Methyl-4-(4-morpholin-4-yl-phenyl)-1H-pyrazolo[4,3-c] pyridine]
1000 to 10000 nM | Cc1n[nH]c2ccnc(-c3ccc(C#N)cc3)c12 [Example 54, 4-(3-Methyl-1H-pyrazolo[4,3-c]pyridin-4-yl)-benzonitrile]
100 to 1000 nM | Cc1n[nH]c2ccnc(-c3ccc(CNS(C)(=O)=O)cc3)c12 [Example 55, N-[4-(3-Methyl-1H-pyrazolo[4,3-c]pyridin-4-yl)-benzyl]-methane-sulfonamide]
1000 to 10000 nM | Cc1n[nH]c2ccnc(-c3ccccc3)c12 [Example 56, 3-Methyl-4-phenyl-1H-pyrazolo[4,3-c] pyridine]

IC50 | Compound
1000 to 10000 nM | COc1cccc(-c2nccc3[nH]nc(C)c23)c1 [Example 57, 4-(3-Methoxy-phenyl)-3-methyl-1H-pyrazolo[4,3-c]pyridine]
1000 to 10000 nM | Cc1n[nH]c2ccnc(-c3ccoc3)c12 [Example 58, 4-Furan-3-yl-3-methyl-1H-pyrazolo[4,3-c]pyridine]
100 to 1000 nM | Cc1n[nH]c2ccnc(Nc3cccc(Cl)c3)c12 [Example 59, (3-Chloro-phenyl)-(3-methyl-1H-pyrazolo[4,3-c]pyridin-4-yl)-amine]
100 to 1000 nM | Cc1n[nH]c2ccnc(Nc3cncc(-c4ccc(C#N)cc4)c3)c12 [Example 60, 4-[5-(3-Methyl-1H-pyrazolo[4,3-c]pyridin-4-ylamino)-pyridin-3-yl]-benzonitrile]
100 to 1000 nM | Cc1n[nH]c2ccnc(Nc3ccn(C)n3)c12 [Example 61, (3-Methyl-1H-pyrazolo[4,3-c]pyridin-4-yl)-(1-methyl-1H-pyrazol-3-yl)-amine]
100 to 1000 nM | Cc1n[nH]c2ccnc(Nc3ccccc3F)c12 [Example 62, (2-Fluoro-phenyl)-(3-methyl-1H-pyrazolo[4,3-c]pyridin-4-yl)-amine]
100 to 1000 nM | Cc1n[nH]c2ccnc(Nc3ccc(N4CCOCC4)nc3)c12 [Example 63, (3-Methyl-1H-pyrazolo[4,3-c]pyridin-4-yl)-(6-morpholin-4-yl-pyridin-3-yl)-amine]
1000 to 10000 nM | Cc1n[nH]c2ccnc(Nc3ccc4cn(C)nc4c3)c12 [Example 64, (2-Methyl-2H-indazol-6-yl)-(3-methyl-1H-pyrazolo[4,3-c]pyridin-4-yl)-amine]
100 to 1000 nM | Cc1n[nH]c2ccnc(Nc3cccc(F)c3)c12 [Example 65, (3-Fluoro-phenyl)-(3-methyl-1H-pyrazolo[4,3-c]pyridin-4-yl)-amine]
100 to 1000 nM | Cc1n[nH]c2ccnc(Nc3cccc(C(F)(F)F)c3)c12 [Example 66, (3-Methyl-1H-pyrazolo[4,3-c]pyridin-4-yl)-(3-trifluoromethyl-phenyl)-amine]
100 to 1000 nM | Cc1n[nH]c2ccnc(Nc3cccc(Br)c3)c12 [Example 67, (3-Bromo-phenyl)-(3-methyl-1H-pyrazolo[4,3-c]pyridin-4-yl)-amine]
100 to 1000 nM | CCOc1ccccc1Nc1nccc2[nH]nc(C)c12 [Example 68, (2-Ethoxy-phenyl)-(3-methyl-1H-pyrazolo[4,3-c]pyridin-4-yl)-amine]
100 to 1000 nM | Cc1n[nH]c2ccnc(Nc3cc(F)cc(F)c3)c12 [Example 69, (3,5-Difluoro-phenyl)-(3-methyl-1H-pyrazolo[4,3-c]pyridin-4-yl)-amine]
100 to 1000 nM | Cc1n[nH]c2ccnc(Nc3ccccc3)c12 [Example 70, (3-Methyl-1H-pyrazolo[4,3-c]pyridin-4-yl)-phenyl-amine]
1000 to 10000 nM | CCOc1cccc(Nc2nccc3[nH]nc(C)c23)c1 [Example 71, (3-Ethoxy-phenyl)-(3-methyl-1H-pyrazolo[4,3-c]pyridin-4-yl)-amine]
100 to 1000 nM | CCOc1ccc(Nc2nccc3[nH]nc(C)c23)cc1 [Example 72, (4-Ethoxy-phenyl)-(3-methyl-1H-pyrazolo[4,3-c]pyridin-4-yl)-amine]
100 to 1000 nM | Cc1n[nH]c2ccnc(Nc3cccc(NS(C)(=O)=O)c3)c12 [Example 73, N-[3-(3-Methyl-1H-pyrazolo[4,3-c]pyridin-4-ylamino)-phenyl]-methanesulfonamide]
100 to 1000 nM | Cc1n[nH]c2ccnc(Nc3ccc(C(=O)N(C)C)cc3)c12 [Example 74, N,N-Dimethyl-4-(3-methyl-1H-pyrazolo[4,3-c]pyridin-4-ylamino)-benzamide]
100 to 1000 nM | Cc1n[nH]c2ccnc(Nc3cccc(C(N)=O)c3)c12 [Example 76, 3-(3-Methyl-1H-pyrazolo[4,3-c]pyridin-4-ylamino)-benzamide]
100 to 1000 nM | Cc1n[nH]c2ccnc(Nc3cccc(O)c3)c12 [Example 77, 3-(3-Methyl-1H-pyrazolo[4,3-c]pyridin-4-ylamino)-phenol]
1000 to 10000 nM | CC(=O)Nc1cccc(Nc2nccc3[nH]nc(C)c23)c1 [Example 78, N-[3-(3-Methyl-1H-pyrazolo[4,3-c]pyridin-4-ylamino)-phenyl]-acetamide]
100 to 1000 nM | CC(=O)Nc1ccc(Nc2nccc3[nH]nc(C)c23)cc1 [Example 79, N-[4-(3-Methyl-1H-pyrazolo[4,3-c]pyridin-4-ylamino)-phenyl]-acetamide]

Compound | IC50
Cc1n[nH]c2ccnc(Nc3ccc4c(c3)CN(C)CC4)c12 [Example 75, (3-Methyl-1H-pyrazolo[4,3-c]pyridin-4-yl)-(2-methyl-1,2,3,4-tetrahydro-isoquinolin-7-yl)-amine] | 100 to 1000 nM
